Assay results: PubChem BioAssay (NCI)
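A five-concentration, 48-hour dose response in 96-well plates underlies each endpoint, interpolated linearly between surrounding concentrations. GI50: concentration for 50% inhibition of growth. TGI denotes the concentration required for complete inhibition of growth.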

Experiments:
Experiment in all cases: NCI anticancer screen, dose series, 48 h
[1] = test system: OVCAR-3 ovarian
[2] = test system: A498 renal
[3] = test system: CAKI-1 renal
[4] = test system: SR leukemia
[5] = test system: MDA-MB-231 breast
[6] = test system: NCI/ADR-RES ovarian
[7] = test system: HCT-116 colon
[8] = test system: U251 CNS
[9] = test system: HOP-92 NSCLC
[10] = test system: UACC-257 melanoma
[11] = test system: KM12 colon
[12] = test system: SK-OV-3 ovarian
[13] = test system: HOP-62 NSCLC
[14] = test system: OVCAR-5 ovarian
[15] = test system: SW-620 colon
[16] = test system: MCF7 breast
[17] = test system: OVCAR-4 ovarian
[18] = test system: K-562 leukemia
[19] = test system: SN12C renal
[20] = test system: NCI-H460 lung
[21] = test system: SNB-75 CNS
[22] = test system: COLO 205 colon
[23] = test system: IGROV1 ovarian
[24] = test system: MDA-MB-435
[25] = test system: UACC-62 melanoma
[26] = test system: M14 melanoma
[27] = test system: HCT-15 colon
[28] = test system: SNB-19 CNS
[29] = test system: SK-MEL-5 melanoma
[30] = test system: HT29 colon
[31] = test system: HL-60(TB) leukemia
[32] = test system: SF-295 CNS
[33] = test system: T-47D breast
[34] = test system: RXF 393 renal
[35] = test system: SK-MEL-28 melanoma
[36] = test system: HCC-2998 colon
[37] = test system: TK-10 renal
[38] = test system: PC-3 prostate
[39] = test system: MALME-3M melanoma
[40] = test system: BT-549 breast
[41] = test system: SF-539 CNS
[42] = test system: UO-31 renal
[43] = test system: DU-145 prostate
[44] = test system: EKVX NSCLC
[45] = test system: NCI-H23 lung
[46] = test system: 786-0 renal
[47] = test system: SF-268 CNS
[48] = test system: HS 578T breast
[49] = test system: ACHN renal
[50] = test system: NCI-H226 lung

`CCCCCCCC/C=C/CCCCCCCC1=NC(C)(C)CN1C(C)C` gave a GI50 [1] of 1270 nM, a TGI [1] of 2530 nM and a GI50 [2] of 2040 nM. For the same compound, the TGI [2] was 5.21 µM, the GI50 [3] was 1160 nM and the TGI [3] was 2380 nM. For the same compound, the GI50 [4] was 1020 nM, the TGI [4] was 2420 nM and the GI50 [5] was 1590 nM. For the same compound, the TGI [5] was 2970 nM, the GI50 [6] was 1540 nM and the TGI [6] was 3.16 µM. It also gave a GI50 [7] of 1400 nM, a TGI [7] of 2700 nM and a GI50 [8] of 1620 nM. It also gave a TGI [8] of 3 µM, a GI50 [9] of 819 nM and a TGI [9] of 2600 nM. The GI50 [10] was 1860 nM, the TGI [10] was 3.4 µM and the GI50 [11] was 1620 nM. The TGI [11] was 2970 nM, the GI50 [12] was 1320 nM and the TGI [12] was 2590 nM. For the same compound, the GI50 [13] was 1580 nM, the TGI [13] was 2920 nM and the GI50 [14] was 1540 nM. For the same compound, the TGI [14] was 2880 nM, the GI50 [15] was 1590 nM and the TGI [15] was 2940 nM. It also gave a GI50 [16] of 1520 nM, a TGI [16] of 2950 nM and a GI50 [17] of 1630 nM. For the same compound, the TGI [17] was 2980 nM, the GI50 [18] was 1110 nM and the TGI [18] was 2390 nM. For the same compound, the GI50 [19] was 1460 nM, the TGI [19] was 2780 nM and the GI50 [20] was 1700 nM. For the same compound, the TGI [20] was 3.07 µM, the GI50 [21] was 1560 nM and the TGI [21] was 2900 nM. The GI50 [22] was 516 nM, the TGI [22] was 2090 nM and the GI50 [23] was 868 nM. It also gave a TGI [23] of 2140 nM, a GI50 [24] of 1600 nM and a TGI [24] of 3.01 µM. The GI50 [25] was 1610 nM, the TGI [25] was 3.02 µM and the GI50 [26] was 1530 nM. The TGI [26] was 2860 nM, the GI50 [27] was 1510 nM and the TGI [27] was 2900 nM. The GI50 [28] was 2170 nM, the TGI [28] was 7.49 µM and the GI50 [29] was 1610 nM. It also gave a TGI [29] of 2960 nM, a GI50 [30] of 576 nM and a TGI [30] of 1860 nM. The GI50 [31] was 1620 nM, the TGI [31] was 3.25 µM and the GI50 [32] was 1640 nM. For the same compound, the TGI [32] was 3.07 µM, the GI50 [33] was 1620 nM and the TGI [33] was 3.27 µM. It also gave a GI50 [34] of 1580 nM, a TGI [34] of 3.04 µM and a GI50 [35] of 1530 nM. The TGI [35] was 2860 nM, the GI50 [36] was 1420 nM and the TGI [36] was 2720 nM. It also gave a GI50 [37] of 1450 nM, a TGI [37] of 2790 nM and a GI50 [38] of 1310 nM. For the same compound, the TGI [38] was 2830 nM, the GI50 [39] was 1630 nM and the TGI [39] was 3.27 µM. For the same compound, the GI50 [40] was 1580 nM, the TGI [40] was 3.74 µM and the GI50 [41] was 1530 nM. It also gave a TGI [41] of 2870 nM, a GI50 [42] of 1430 nM and a TGI [42] of 2810 nM. For the same compound, the GI50 [43] was 1630 nM, the TGI [43] was 2990 nM and the GI50 [44] was 1560 nM. For the same compound, the TGI [44] was 3.27 µM, the GI50 [45] was 1510 nM and the TGI [45] was 2830 nM. For the same compound, the GI50 [46] was 1580 nM, the TGI [46] was 2930 nM and the GI50 [47] was 1700 nM. For the same compound, the TGI [47] was 3.07 µM, the GI50 [48] was 1550 nM and the TGI [48] was 3.56 µM. It also gave a GI50 [49] of 1650 nM, a TGI [49] of 3.01 µM and a GI50 [50] of 1750 nM. For the same compound, the TGI [50] was 4.52 µM.
